Results as given in PubChem BioAssay (NCI).
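Assay format: 96-well plates, 48-hour exposure. The concentration for full growth arrest is given as TGI.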

Legend:
Experiment in all cases: inhibition of tumour cell growth, NCI panel, 48 h
KM12 colon = test system: KM12 colon
A549 NSCLC = test system: A549 NSCLC
NCI-H522 lung = test system: NCI-H522 lung
NCI-H460 lung = test system: NCI-H460 lung
RXF 393 renal = test system: RXF 393 renal
HT29 colon = test system: HT29 colon
EKVX NSCLC = test system: EKVX NSCLC
SK-OV-3 ovarian = test system: SK-OV-3 ovarian
SR leukemia = test system: SR leukemia
A498 renal = test system: A498 renal

SMILES | TGI (KM12 colon) | TGI (A549 NSCLC) | TGI (NCI-H522 lung) | TGI (NCI-H460 lung) | TGI (RXF 393 renal) | TGI (HT29 colon) | TGI (EKVX NSCLC) | TGI (SK-OV-3 ovarian) | TGI (SR leukemia) | TGI (A498 renal)
CC1(C)SC2C(NC(=O)Cc3ccccc3)C(=O)N2C1C(=O)O (stereo not given) | > 100 µM | > 100 µM | > 100 µM | > 100 µM | > 100 µM | > 100 µM | > 100 µM | > 100 µM | > 100 µM | > 100 µM
c1ccc2c(Cc3c[nH]c4ccccc34)c[nH]c2c1 | 40.5 µM | 57 µM | 47.9 µM | 40.5 µM | 33.1 µM | 30.2 µM | 32.5 µM | 51 µM | 34.2 µM | > 100 µM
CCOC(=O)C1(Cc2ccccc2)CCN(C(=O)c2ccccc2)C2C1C2(Cl)Cl (stereo not given) | 94.9 µM | > 100 µM | 42.5 µM | 35.9 µM | 36.5 µM | 34.8 µM | 71.7 µM | > 100 µM | 69.7 µM | 40 µM
OCCCN(CCc1ccc(Cl)c(Cl)c1)CCN1CCCC1 | > 100 µM | > 100 µM | 54.5 µM | > 100 µM | > 100 µM | > 100 µM | > 100 µM | > 100 µM | > 100 µM | 44.6 µM
CC(C)(C)OC(=O)/C=C/C(=O)O/C=C/[N+](=O)[O-] | > 100 µM | > 100 µM | > 100 µM | > 100 µM | > 100 µM | > 100 µM | > 100 µM | > 100 µM | > 100 µM | > 100 µM
O=C(/C(Cl)=C/c1ccccc1)c1ccccc1 | 14.9 µM | 34.1 µM | 3.76 µM | 30.5 µM | 8.16 µM | 3.52 µM | 25.6 µM | 39.8 µM | 6.47 µM | 46.1 µM
O=C(NCCCCNCCCNC(=O)C(F)(F)F)C(F)(F)F | > 100 µM | > 100 µM | > 100 µM | > 100 µM | > 100 µM | > 100 µM | > 100 µM | 65.5 µM | > 100 µM | > 100 µM
O=[N+]([O-])C(=C/C1CCCCC1)/C(=C\C1CCCCC1)[N+](=O)[O-] | 29.8 µM | 49 µM | 4.3 µM | 12.5 µM | 3.93 µM | 28.8 µM | 24.9 µM | 42.7 µM | 6.89 µM | 30 µM
C(/C=N/NC1=NCCN1)=N\NC1=NCCN1 | > 100 µM | > 100 µM | > 100 µM | > 100 µM | > 100 µM | > 100 µM | > 100 µM | > 100 µM | > 100 µM | > 100 µM
C/C=C/[C@@H]1O[C@H](CC#C[Si](C)(C)C)[C@@]2(C=O)C(C)=CC[C@H](C(C)C)[C@@H]12 | 40.8 µM | 64.5 µM | 4.78 µM | 39.8 µM | 36.8 µM | 46.2 µM | 41 µM | > 100 µM | 56.3 µM | 89.6 µM
Cn1c2ccccc2n2c3ccccc3c(=S)c(C#N)c12 | > 100 µM | > 100 µM | > 100 µM | > 100 µM | > 100 µM | > 100 µM | > 100 µM | > 100 µM | > 100 µM | > 100 µM
N#C[C@](CO)(NC(=O)OCc1ccccc1)C(F)F | > 100 µM | > 100 µM | > 100 µM | > 100 µM | > 100 µM | > 100 µM | > 100 µM | > 100 µM | > 100 µM | > 100 µM
COC(=O)c1ccc(NCC2=CC(=O)c3ccccc3C2=O)cc1 | 33 µM | 96.7 µM | 42.3 µM | 35.6 µM | > 61.7 µM | > 76.4 µM | 66.5 µM | 35.3 µM | 39.4 µM | 54.2 µM
COC(=O)[C@H]1ON2O[C@@H](O[C@H]3CCCC[C@@H]3C(C)(C)c3ccccc3)C[C@@H]3CC[C@H]1[C@@]32C | > 100 µM | > 100 µM | > 100 µM | > 100 µM | > 100 µM | > 100 µM | > 100 µM | > 100 µM | > 100 µM | > 100 µM
